Literature values as cited in patent publication US20190151246A1, “DELAYED-RELEASE TABLETS OF METHYLPHENIDATE” (PRODUCTS & TECHNOLOGY, S.L., priority 2016, published 2019).

In the case of `COC(=O)C(c1ccccc1)C1CCCCN1` (centres unmarked) [methylphenidate, methyl 2-phenyl-2-(2-piperidyl)acetate], the half-life in children (children, estimated) is given as “approximately 2.5 hours” and the half-life (in vivo) is given as 2 to 4 h.
